The results in this text go back to patent US20100125087A1, “NEW COMPOUNDS 575” (AstraZeneca AB, priority 2008, published 2010).

Counter-ions that a name gives are not always drawn.

The assay addresses T1, human β-Secretase (Homo sapiens, UniProt P56817).
T1 construct: soluble part of the human β-Secretase (AA 1-AA 460); Fc domain of IgG1 (C); made in house
The assay can be described thus: TR-FRET assay. The assay is classed as biochemical. The following applies: sBACE-Fc, substrate (Europium)CEVNLDAEFK(Qsy7) 100 nM, pH4.5, unit not in table. Here is the method:
The β-secretase enzyme used in the TR-FRET is prepared as follows:
The cDNA for the soluble part of the human β-Secretase (AA 1-AA 460) was cloned using the ASP2-Fc10-1-IRES-GFP-neoK mammalian expression vector. The gene was fused to the Fc domain of IgG1 (affinity tag) and stably cloned into HEK 293 cells.
The enzyme (truncated form) was diluted to 6 μg/mL (stock 1.3 mg/mL) and the substrate (Europium)CEVNLDAEFK(Qsy7) to 200 nM (stock 120 μM) in reaction buffer (NaAcetate, chaps, triton x-100, EDTA pH4.5). The robotic systems Biomek FX and Velocity 11 were used for all liquid handling and the enzyme and substrate solutions were kept on ice until they were placed in the robotic system. Enzyme (9 μl) was added to the plate then 1 μl of compound in dimethylsulphoxide was added, mixed and pre-incubated for 10 minutes. Substrate (10 μl) was then added, mixed and the reaction proceeded for 15 minutes at room temperature. The reaction was stopped with the addition of Stop solution (7 μl, NaAcetate, pH 9). The fluorescence of the product was measured on a Victor II plate reader with an excitation wavelength of 340 nm and an emission wavelength of 615 nm. The assay was performed in a Costar 384 well round bottom, low volume, non-binding surface plate (Corning #3676). […] The dimethylsulphoxide control, instead of test compound, defined the 100% activity level and 0% activity was defined by wells lacking enzyme (replaced with reaction buffer).
(In general: Time-resolved FRET reads energy transfer from a long-lived donor to a nearby acceptor.)

T1 sequence (P56817 22-460): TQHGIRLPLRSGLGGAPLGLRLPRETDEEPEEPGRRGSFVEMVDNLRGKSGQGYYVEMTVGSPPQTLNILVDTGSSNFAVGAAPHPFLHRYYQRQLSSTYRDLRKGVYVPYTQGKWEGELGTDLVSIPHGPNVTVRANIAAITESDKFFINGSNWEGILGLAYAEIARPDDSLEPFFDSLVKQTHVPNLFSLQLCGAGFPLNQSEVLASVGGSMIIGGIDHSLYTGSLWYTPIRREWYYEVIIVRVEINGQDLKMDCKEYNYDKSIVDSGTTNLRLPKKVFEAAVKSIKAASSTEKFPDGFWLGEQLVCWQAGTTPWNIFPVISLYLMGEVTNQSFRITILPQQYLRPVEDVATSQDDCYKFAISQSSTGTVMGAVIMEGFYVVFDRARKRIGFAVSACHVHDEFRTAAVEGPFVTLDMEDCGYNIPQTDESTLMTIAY

A word on the IC50: it is the concentration at which inhibition is half-maximal. Read a high IC50 as weaker potency in that assay. For `CC(C)COc1cccc(C2(c3ccncc3)N=C(N)c3ncccc32)c1` (stereo not drawn) [Example 1, 5-(3-Isobutoxyphenyl)-5-(pyridin-4-yl)-5H-pyrrolo[3,4-b]pyridin-7-amine], the IC50 worked out at 640 nM.

In turn, `CC(C)CCOc1cccc(C2(c3ccncc3)N=C(N)c3ncccc32)c1` (stereo not drawn) [Example 2, 5-(3-(Isopentyloxy)phenyl)-5-(pyridin-4-yl)-5H-pyrrolo[3,4-b]pyridin-7-amine] yielded an IC50 of 1700 nM. To `NC1=NC(c2ccncc2)(c2cccc(OCC3CCCC3)c2)c2cccnc21` (stereo not drawn) [Example 3, 5-(3-(Cyclopentylmethoxy)phenyl)-5-(pyridin-4-yl)-5H-pyrrolo[3,4-b]pyridin-7-amine] belongs 1500 nM; to `NC1=NC(c2ccncc2)(c2cccc(OCC3CCC3)c2)c2cccnc21` (stereo not drawn) [Example 4, 5-(3-(Cyclobutylmethoxy)phenyl)-5-(pyridin-4-yl)-5H-pyrrolo[3,4-b]pyridin-7-amine], 2700 nM; to `NC1=NC(c2ccncc2)(c2cccc(OCC3CC3(F)F)c2)c2cccnc21` (stereo not drawn) [Example 5, 5-(3-((2,2-Difluorocyclopropyl)methoxy)phenyl)-5-(pyridin-4-yl)-5H-pyrrolo[3,4-b]pyridin-7-amine], 2300 nM. The molecule `NC1=NC(c2cccc(OCCCF)c2)(c2ccnc(C(F)(F)F)c2)c2cccnc21` (stereo not drawn) [Example 6, 5-(3-(3-Fluoropropoxy)phenyl)-5-(2-(trifluoromethyl)pyridin-4-yl)-5H-pyrrolo[3,4-b]pyridin-7-amine] returned an IC50 of 1500 nM. To `NC1=NC(c2cccc(OCC3CCC3)c2)(c2ccnc(C(F)(F)F)c2)c2cccnc21` (stereo not drawn) [Example 7, 5-(3-(Cyclobutylmethoxy)phenyl)-5-(2-(trifluoromethyl)pyridin-4-yl)-5H-pyrrolo[3,4-b]pyridin-7-amine] belongs 1200 nM; to `NC1=NC(c2ccncc2)(c2cccc(OC3CCCC3)c2)c2cccnc21` (stereo not drawn) [Example 8, 5-(3-(Cyclopentyloxy)phenyl)-5-(pyridin-4-yl)-5H-pyrrolo[3,4-b]pyridin-7-amine], 3000 nM. In the case of `NC1=NC(c2ccncc2)(c2cccc(OC3CCC3)c2)c2cccnc21` (stereo not drawn) [Example 9, 5-(3-Cyclobutoxyphenyl)-5-(pyridin-4-yl)-5H-pyrrolo[3,4-b]pyridin-7-amine] it was 8000 nM. To `COc1cccc(C2(c3ccncc3)N=C(N)c3ncccc32)c1` (stereo not drawn) [Example 9i, 5-(3-Methoxyphenyl)-5-(pyridin-4-yl)-5H-pyrrolo[3,4-b]pyridin-7-amine] belongs 26000 nM; to `NC1=NC(c2ccncc2)(c2cccc(OCCCF)c2)c2cccnc21` (stereo not drawn) [Example 10, 5-(3-(3-Fluoropropoxy)phenyl)-5-(pyridin-4-yl)-5H-pyrrolo[3,4-b]pyridin-7-amine], 2400 nM. Take `COc1c(C)cc(C2(c3cccc(OCCCF)c3)N=C(N)c3ncccc32)cc1C` (stereo not drawn) [Example 11, 5-(3-(3-Fluoropropoxy)phenyl)-5-(4-methoxy-3,5-dimethylphenyl)-5H-pyrrolo[3,4-b]pyridin-7-amine]: the IC50 stood at 81 nM. The molecule `COc1cc(C2(c3cccc(OCCCF)c3)N=C(N)c3ncccc32)ccn1` (stereo not drawn) [Example 12, 5-(3-(3-Fluoropropoxy)phenyl)-5-(2-methoxypyridin-4-yl)-5H-pyrrolo[3,4-b]pyridin-7-amine] registered a half-maximal inhibitory concentration (IC50) of 2700 nM. Regarding `Cc1cc(C2(c3cccc(OCCCF)c3)N=C(N)c3ncccc32)ccn1` (stereo not drawn) [Example 13, 5-(3-(3-Fluoropropoxy)phenyl)-5-(2-methylpyridin-4-yl)-5H-pyrrolo[3,4-b]pyridin-7-amine], the IC50 amounted to 2700 nM. To `COc1ccc(C2(c3cccc(OCCCF)c3)N=C(N)c3ncccc32)cc1C(F)(F)F` (stereo not drawn) [Example 14, 5-(3-(3-Fluoropropoxy)phenyl)-5-(4-methoxy-3-(trifluoromethyl)phenyl)-5H-pyrrolo[3,4-b]pyridin-7-amine] belongs 960 nM; to `Cc1cc(C2(c3cccc(OCC(C)C)c3)N=C(N)c3ncccc32)cc(C)n1` (stereo not drawn) [Example 15, 5-(2,6-Dimethylpyridin-4-yl)-5-(3-isobutoxyphenyl)-5H-pyrrolo[3,4-b]pyridin-7-amine acetate], 3800 nM.

As for `COc1ncc(C2(c3cccc(OCC(C)C)c3)N=C(N)c3ncccc32)cc1C` (stereo not drawn) [Example 16, 5-(3-Isobutoxyphenyl)-5-(6-methoxy-5-methylpyridin-3-yl)-5H-pyrrolo[3,4-b]pyridin-7-amine acetate], 3100 nM corresponded to half-maximal inhibition (IC50). Consider `CC(C)COc1cccc(C2(c3ccc(OC(F)F)nc3)N=C(N)c3ncccc32)c1` (stereo not drawn) [Example 17, acetate], for which 1300 nM corresponded to half-maximal inhibition (IC50). To `CC(C)COc1cccc(C2(c3ccc(OC(F)F)cc3)N=C(N)c3ncccc32)c1` (stereo not drawn) [Example 18, 5-(4-(Difluoromethoxy)phenyl)-5-(3-isobutoxyphenyl)-5H-pyrrolo[3,4-b]pyridin-7-amine] belongs 150 nM; to `Cc1cc(C2(c3cccc(OCCCF)c3)N=C(N)c3ncccc32)cc(OC(F)F)n1` (stereo not drawn) [Example 19, 5-(2-(Difluoromethoxy)-6-methylpyridin-4-yl)-5-(3-(3-fluoropropoxy)phenyl)-5H-pyrrolo[3,4-b]pyridin-7-amine], 909 nM. In the case of `COc1ccc(C2(c3cccc(OCCCF)c3)N=C(N)c3ncccc32)cc1Cl` (stereo not drawn) [Example 20, 5-(3-Chloro-4-methoxyphenyl)-5-(3-(3-fluoropropoxy)phenyl)-5H-pyrrolo[3,4-b]pyridin-7-amine] it was 779 nM; in that of `NC1=NC(c2cccc(OCCC(F)F)c2)(c2ccnc(C(F)(F)F)c2)c2cccnc21` (stereo not drawn) [Example 21, 5-(3-(3,3-Difluoropropoxy)phenyl)-5-(2-(trifluoromethyl)pyridin-4-yl)-5H-pyrrolo[3,4-b]pyridin-7-amine trifluoroacetic acid salt], 1150 nM; in that of `COc1c(C)cc(C2(c3cccc(OCCC(F)F)c3)N=C(N)c3ncccc32)nc1C` (stereo not drawn) [Example 22, 5-(3-(3,3-Difluoropropoxy)phenyl)-5-(5-methoxy-4,6-dimethylpyridin-2-yl)-5H-pyrrolo[3,4-b]pyridin-7-amine acetic acid salt], 337 nM.

As to `NC1=NC(c2cccc(OCCCF)c2)(c2ccnc(OC(F)F)c2)c2cccnc21` (stereo not drawn) [Example 23, 5-(2-(Difluoromethoxy)pyridin-4-yl)-5-(3-(3-fluoropropoxy)phenyl)-5H-pyrrolo[3,4-b]pyridin-7-amine 1.67 acetic acid], the IC50 worked out at 2620 nM.
